Experimental data published in ChEMBL document CHEMBL3046372, “Design, Synthesis and Growth Inhibition Activity of Bis-Epoxyethyl Derivatives of Stallimycin Modified on the Amidino Moiety” (Med Chem Res, 2004).

How the values were obtained:
L1210 [1] = assay: Cytotoxicity against Mus musculus (mouse) L1210 cells after 72 hr; format: functional, cell-based; conditions: L1210, 72 h
K562 [2] = assay: Cytotoxicity against Homo sapiens (human) K562 cells after 72 hr; format: functional, cell-based; conditions: K562, 72 h
K562 [3] = assay: Induction of erythroid differentiation in Homo sapiens (human) K562 cells assessed as benzidine-positive cells at IC50 after 6 days; format: functional
L1210 [4] = assay: Ratio of distamycin-A IC50 to compound IC50 for Mus musculus (mouse) L1210 cells; format: functional
K562 [5] = assay: Induction of erythroid differentiation in Homo sapiens (human) K562 cells assessed as benzidine-positive cells at IC50 after 4 days; format: functional

Row | Compound | IC50 (L1210 [1]) | IC50 (K562 [2]) | Activity (K562 [3]) | Ratio IC50 (L1210 [4]) | Activity (K562 [5])
1 | Cn1cc(NC(=O)c2cc(NC(=O)c3cc(N)cn3C)cn2C)cc1C(=O)NCC/C(N)=N/C#N | > 50 µM | > 50 µM | – | – | –
2 | Cn1cc(NC(=O)c2cc(NC(=O)c3cc(N)cn3C)cn2C)cc1C(=O)NCC/C(N)=N/O | > 50 µM | > 50 µM | – | – | –
3 | Cn1cc(NC(=O)c2cc(NC(=O)c3cc(N(CC4CO4)CC4CO4)cn3C)cn2C)cc1C(=O)NCCC(N)=O (stereo not given) | 35 µM | 25 µM | 16% | 4 | 15%
4 | Cn1cc(NC(=O)c2cc(NC(=O)c3cc(N(CC4CO4)CC4CO4)cn3C)cn2C)cc1C(=O)NCC/C(N)=N/O (stereo not given) | 18 µM | 12 µM | 13% | – | 11%
5 | CNC(=O)CCNC(=O)c1cc(NC(=O)c2cc(NC(=O)c3cc(N)cn3C)cn2C)cn1C | > 50 µM | > 50 µM | – | – | –
6 | Cl.Cl.Cn1cc(NC(=O)c2cc(NC(=O)c3cc(NC=O)cn3C)cn2C)cc1C(=O)NCCC(=N)N | 50 µM | 10 µM | 10% | – | 8%
7 | CNC(=O)CCNC(=O)c1cc(NC(=O)c2cc(NC(=O)c3cc(N(CC4CO4)CC4CO4)cn3C)cn2C)cn1C (stereo not given) | 38 µM | 25 µM | 15% | 4 | 12%
8 | Cn1cc(NC(=O)c2cc(NC(=O)c3cc(N(CC4CO4)CC4CO4)cn3C)cn2C)cc1C(=O)NCC/C(N)=N/C#N (stereo not given) | 6.3 µM | 1 µM | 65.3% | – | 46.3%
9 | Cn1cc(NC(=O)c2cc(NC(=O)c3cc(N)cn3C)cn2C)cc1C(=O)NCCC(N)=O | > 50 µM | 45 µM | – | – | –
